Data published in ChEMBL document CHEMBL4000141, “Synthesis and carbonic anhydrase isoenzymes I, II, IX, and XII inhibitory effects of dimethoxybromophenol derivatives incorporating cyclopropane moieties” (J Med Chem, 2015).

How the values were obtained:
Carbonic anhydrase 9 = Carbonic anhydrase 9 (Homo sapiens, UniProt Q16790)
Description: Inhibition of human CA9 by stopped-flow CO2 hydration method

Carbonic anhydrase 12 = Carbonic anhydrase 12 (Homo sapiens, UniProt O43570); assay: Inhibition of human CA12 by stopped-flow CO2 hydration method
Carbonic anhydrase 12, sequence (O43570 whole entry): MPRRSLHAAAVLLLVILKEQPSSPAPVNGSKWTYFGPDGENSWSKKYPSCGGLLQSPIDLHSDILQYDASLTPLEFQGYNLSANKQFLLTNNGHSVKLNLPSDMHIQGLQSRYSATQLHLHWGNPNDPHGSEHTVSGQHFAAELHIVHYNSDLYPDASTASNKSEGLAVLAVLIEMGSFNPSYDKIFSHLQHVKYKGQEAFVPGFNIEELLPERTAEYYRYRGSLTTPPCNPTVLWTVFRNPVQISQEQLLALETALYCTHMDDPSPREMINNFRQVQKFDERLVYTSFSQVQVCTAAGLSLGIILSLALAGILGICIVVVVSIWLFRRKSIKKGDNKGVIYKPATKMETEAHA

Compound	Ki (Carbonic anhydrase 9) [µM]	Ki (Carbonic anhydrase 12) [µM]
CCOC(=O)[C@@H]1C[C@H]1Cc1cc(OC)c(OC)cc1Br	7.3	
COc1cc(Br)c(C[C@@H]2C[C@H]2C(=O)O)cc1OC	9.8	
COc1ccc(C[C@@H]2C[C@H]2C(=O)O)cc1OC	1.1	
CCOC(=O)[C@@H]1C[C@H]1Cc1c(Br)c(Br)c(OC)c(OC)c1Br	7.8	
CCOC(=O)[C@@H]1C[C@@H]1Cc1c(Br)c(Br)c(OC)c(OC)c1Br	> 50	
COc1c(Br)c(Br)c(C[C@H]2C[C@H]2C(=O)O)c(Br)c1OC	10.5	
CCOC(=O)[C@@H]1C[C@@H]1Cc1ccc(OC)c(OC)c1	6.6	
COc1cc(C[C@H]2C[C@H]2C(=O)O)c(Br)c(Br)c1OC	> 50	> 50
CCOC(=O)[C@@H]1C[C@@H]1Cc1cc(OC)c(OC)c(Br)c1Br	> 50	
COc1cc(Br)c(C[C@H]2C[C@H]2C(=O)O)cc1OC	> 50	

Next, values leading:

Ki (Carbonic anhydrase 9) [µM]	Ki (Carbonic anhydrase 12) [µM]	Compound
9.7		CCOC(=O)[C@@H]1C[C@H]1Cc1c(Br)cc(OC)c(OC)c1Br
1		CCOC(=O)[C@@H]1C[C@@H]1Cc1cc(OC)c(OC)cc1Br
> 50	> 50	COc1cc(C[C@@H]2C[C@H]2C(=O)O)c(Br)c(Br)c1OC
9		CCOC(=O)[C@@H]1C[C@H]1Cc1cc(OC)c(OC)c(Br)c1Br
9.1		CCOC(=O)[C@@H]1C[C@H]1Cc1ccc(OC)c(OC)c1
> 50	> 50	COc1cc(Br)c(C[C@H]2C[C@H]2C(=O)O)c(Br)c1OC
> 50	> 50	COc1cc(Br)c(C[C@@H]2C[C@H]2C(=O)O)c(Br)c1OC
> 50		COc1c(Br)c(Br)c(C[C@@H]2C[C@H]2C(=O)O)c(Br)c1OC
8.9		CCOC(=O)[C@@H]1C[C@@H]1Cc1c(Br)cc(OC)c(OC)c1Br
8.8		COc1ccc(C[C@@H]2C[C@@H]2C(=O)O)cc1OC
8.8		COc1ccc(C[C@@H]2C[C@H]2CO)cc1OC
4.9		COc1ccc(C[C@H]2C[C@H]2CO)cc1OC
